# Reference: patent US20220168314A1, “MEDICAMENT FOR PROPHYLAXIS OR TREATMENT OF PULMONARY FIBROSIS” (MITSUBISHI TANABE PHARMA CORPORATION, priority 2019, published 2022)
# Key:
# [1] = test system: bleomycin subcutaneous continuous infusion induced mouse pulmonary fibrosis model; test: Lung functions in bleomycin subcutaneous continuous infusion induced mouse pulmonary fibrosis model (Example 2); assay type: in vivo
# Procedure: (§1) Body weights of the mice of the test group were measured daily, and, on the seventh day (Day 7) after the start of the test, the mice of the test group were randomly grouped as follows using an amount of decrease in body weight as an indicator.
# (§2) Group 2: no drug administration group (control group) (12 mice) Group 3: drug (the compound (I), 3 mg/kg) administration group (12 mice) Group 4: drug (the compound (I), 10 mg/kg) administration group (12 mice) Group 5: drug (the compound (I), 30 mg/kg) administration group (12 mice)
# (§3) From an eighth day (Day 8) after the start of the test, oral gavage administration of a vehicle (0.1 ml per 10 g body weight) to the mice of Group 1 as the normal group and the mice of Group 2 as the no drug administration group was started, and, on the other hand, oral gavage administration of the compound (I) of a predetermined dosage to the mice of the drug administration groups of Groups 3-5 was started (for all groups, once a day in the morning). Thereafter, until a 21st day (Day 21) after the start of the test, the administrations were continued. After the administrations were completed, the following items were evaluated.
# Evaluation of 4 items including: 1) inspiratory capacity (mL); 2) compliance (mL/cmH2O); 3) elastance) (cmH2O/mL); and 4) resistance (cmH2O.s/mL)
# [2] = test system: bleomycin intra airway administration induced mouse pulmonary fibrosis model; test: Lung pathological tissue (picrosirius red staining, hydroxyproline content), Example 1; assay type: in vivo; conditions: Day 21, compound (I) 10 mg/kg once a day, eplerenone 50 mg/kg twice a day; for positive rate (PSR Positive %) in picrosirius red staining: left lung lobes; for hydroxyproline content (μg): lower lung lobes and middle lung lobe
# Procedure: (§4) C57/BL6NTAC mice (male; body weight at start of a test: 25 g) (manufactured by The Jackson Laboratory) were grouped into the following 4 groups (12 mice in each group):
# (§5) Group 1: normal group Group 2: no drug administration group (control group) Group 3: drug (the compound (I)) administration group Group 4: drug (eplerenone; positive control) administration group
# (§6) On a day (Day 0) when the test was started, bleomycin (3.25 U/kg) was administered dropwise through airways to the mice of Groups 2-4 as test groups. Instead of bleomycin, saline was administered dropwise through airways to the mice of Group 1 as a normal group. On a seventh day (Day 7) after the start of the test, with a dosing schedule of twice a day in the morning and afternoon, oral gavage administration (twice in the morning and afternoon) of a vehicle (0.1% HCO60+0.5% CMC) was started for the mice of Groups 1 and 2; a 2 mg/ml solution of the compound (I) was prepared and oral gavage administration (in the morning) thereof at a dose of 10 mg/kg and oral gavage administration (in the afternoon) of a vehicle (0.1% HCO60+0.5% CMC) were started for the mice of Group 3; and oral gavage administration (twice in the morning and afternoon) of eplerenone at a dose of 50 mg/kg was started for the mice of Group 4. Thereafter, until a 21st day (Day 21) after the start of the test, the administrations were continued at the same dosing schedules. After the administrations were completed (Day 21), the following evaluation items were examined.
# Pulmonary fibrosis is caused by that activated fibroblasts are accumulated at a fibrosis site and a large amount of type I collagen is produced. Therefore, based on a degree of collagen accumulation in a lung tissue, a degree of pulmonary fibrosis can be evaluated. Type I collagen and type III collagen in a tissue are stained by picrosirius red staining. Therefore, a situation of collagen accumulation can be image-diagnosed, and quantitative evaluation can also be performed by calculating a staining positive rate.
# Specifically, the above staining was performed on a tissue section of the lungs, and an area of a stained site (fibrosis site) was measured and evaluated.
# Hydroxyproline is a major component of collagen and is substantially absent in other proteins. Therefore, by measuring a content of hydroxyproline in a tissue, an amount of collagen can be evaluated.
# [3] = test system: bleomycin intra airway administration induced mouse pulmonary fibrosis model; test: Lung functions in bleomycin intra airway administration induced mouse pulmonary fibrosis model (Example 1); assay type: in vivo; conditions: Day 21; oral gavage Day 7-21; compound (I) 10 mg/kg once a day, eplerenone 50 mg/kg twice a day; vs bleomycin control group
# Procedure: as §4, §5, §6
# The following evaluation items were measured using a commercially available respiratory and lung function evaluation system (measurement site: around an airway). Evaluation of 4 items including: 1) inspiratory capacity (mL); 2) compliance (mL/cmH2O); 3) elastance) (cmH2O/mL); and 4) resistance (cmH2O.s/mL)
# The “inspiratory capacity” corresponds to an amount of air discharged from the lungs at a stage when slowly breathing out to an end of a breath has completed, and is an indicator of a volume of the lungs. As pulmonary fibrosis progresses and the lung hardens, the volume of the lungs shrinks, and the inspiratory capacity decreases.
# The “compliance” indicates a change in a lung capacity due to a certain change in pressure. […] As pulmonary fibrosis progresses and the lungs harden, the volume of the lungs shrinks, and the compliance decreases.
# The “elastance” is a value represented by a reciprocal of the compliance, and is an indicator representing the difficulty for the lungs to stretch. As pulmonary fibrosis progresses and the lungs harden, the elastance increases.
# The “resistance” means an airway resistance. The resistance is a resistance received by an air current in respiration, and a larger resistance means that it is harder for air to flow through the airway.
# [4] = Concentration of the compound (I) in blood plasma, Example 1; assay type: in vivo, mouse; conditions: 10 mg/kg oral
# Procedure: as §6, with “After the administrations were completed (Day 21), the following evaluation items were examined.” left out
# At 2 hours (before the above evaluations) and at 18 hours from the final administration of the compound (I) (Day 21), a small amount of blood was collected from a tail vein under anesthesia, and plasma was separated with an ice-cooled centrifuge, and a concentration (nM) of the compound (I) in the plasma was measured using a conventional method.
# [5] = test system: gene expression associated with pulmonary fibrosis; test: Gene expression fluctuation associated with pulmonary fibrosis (mRNA, real time PCR, upper lung lobes), Example 1; assay type: in vivo, mouse; conditions: Day 21, compound (I) 10 mg/kg once a day, eplerenone 50 mg/kg twice a day
# Procedure: as §4, §5, §6
# (iii) Evaluation of Gene Expression Fluctuation Associated with Pulmonary Fibrosis (Quantification of mRNA; Fold Increase) (Upper Lung Lobes)
# According to a conventional method, mRNA was extracted from a homogenized upper lung lobe, and an extremely small amount of the mRNA was quantified using a real time PCR system.
# [6] = test system: bleomycin subcutaneous continuous infusion induced mouse pulmonary fibrosis model; test: Lung pathological tissue (picrosirius red staining, hydroxyproline content), Example 2; assay type: in vivo; conditions: for hydroxyproline content (μg): right lung lobes
# Procedure: as §1, §2, §3
# i) Evaluation by Picrosirius Red Staining (Left Lung Lobes)
# ii) Evaluation of Hydroxyproline Content (μg) (Right Lung Lobes)
# [7] = Concentration of the compound (I) in blood plasma, Example 2; assay type: in vivo, mouse
# Procedure: as §3
# Evaluation of a concentration (nM) of the compound (I) in a blood plasma at 2 hours (before the above evaluations) and at 24 hours after the final administration (Day 21) (similar to Example 1, blood samples obtained by tail vain blood sampling were evaluated.)
# [8] = test system: bleomycin-induced pulmonary fibrosis mice; conditions: literature reports; cited from earlier work
# [9] = target: CYP3A4 (Homo sapiens, UniProt P08684); conditions: background statement; cited from earlier work
# [10] = 30 mg/kg oral once a day, Day 8-21 (Group 5)
# [11] = 3, 10 and 30 mg/kg oral once a day, Day 8-21 (Groups 3-5), dose-dependent
# Chain of CYP3A4 (P08684 whole entry): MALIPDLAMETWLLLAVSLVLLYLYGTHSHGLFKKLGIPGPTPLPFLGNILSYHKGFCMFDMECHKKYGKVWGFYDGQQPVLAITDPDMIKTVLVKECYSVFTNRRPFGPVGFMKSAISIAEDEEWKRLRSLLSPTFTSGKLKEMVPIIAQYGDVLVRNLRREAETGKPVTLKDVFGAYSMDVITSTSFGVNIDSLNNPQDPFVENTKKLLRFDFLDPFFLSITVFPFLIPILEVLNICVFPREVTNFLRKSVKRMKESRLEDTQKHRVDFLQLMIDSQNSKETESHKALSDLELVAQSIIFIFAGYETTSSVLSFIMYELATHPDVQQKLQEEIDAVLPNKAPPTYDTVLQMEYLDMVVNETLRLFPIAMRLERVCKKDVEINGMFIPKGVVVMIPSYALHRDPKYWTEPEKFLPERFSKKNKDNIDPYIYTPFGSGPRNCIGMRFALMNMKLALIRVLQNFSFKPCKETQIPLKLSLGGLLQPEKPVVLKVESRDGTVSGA
Compound,positive rate (PSR Positive %) in picrosirius red staining [2],hydroxyproline content (μg) [2],compliance (mL/cmH2O) [3],elastance (cmH2O/mL) [3],inspiratory capacity (mL) [3],resistance (cmH2O.s/mL) [3],CTGF gene expression [5],Ccl2 gene expression [5],PAI-1 gene expression [5],TGFβ gene expression [5],fibronectin gene expression [5],type I collagen gene expression [5],type III collagen gene expression [5],type IV collagen gene expression [5],vimentin gene expression [5],αSMA gene expression [5],also measured
CC1(C)Oc2cc(NS(C)(=O)=O)ccc2N(c2ccc(F)cc2)C1=O [compound (I)],significantly improving,significantly improved to an extent exceeding the effect of eplerenone,significantly improving,significantly improving,significantly improved to an extent exceeding the effect of eplerenone,very significantly improved to a level of the normal group exceeding the effect of eplerenone,significantly reduced,significantly reduced,significantly reduced,tendency to decrease,significantly reduced,significantly reduced,significantly reduced,significantly reduced,significantly reduced,significantly reduced,"inspiratory capacity (mL) ([1]; 10 mg/kg oral once a day, Day 8-21 (Group 4)): significantly improved; inspiratory capacity (mL) [1, 10]: significantly improved; resistance (cmH2O.s/mL) [1, 10]: significantly improved; compliance (mL/cmH2O) [1, 11]: significantly improved; elastance (cmH2O/mL) [1, 11]: significantly improved; concentration of the compound (I) in a blood plasma ([4]; 2 hours after the final administration (Day 21)): sufficient concentration; concentration of the compound (I) in a blood plasma ([4]; 18 hours after the final administration (Day 21)): sufficient concentration; positive rate in picrosirius red staining ([6]; left lung lobes, all the doses 3, 10, 30 mg/kg oral once a day (Groups 3-5)): significantly decreased; hydroxyproline content (μg) ([6]; 3 mg/kg oral once a day, Day 8-21 (Group 3)): significantly decreased; hydroxyproline content (μg) [6, 10]: significantly decreased; concentration of the compound (I) in a blood plasma ([7]; 2 hours after the final administration (Day 21), 3, 10, 30 mg/kg oral): dose-dependent concentration; concentration of the compound (I) in a blood plasma ([7]; 24 hours after the final administration (Day 21), 30 mg/kg oral): sufficient concentration"
CC(=O)S[C@@H]1CC2=CC(=O)CC[C@]2(C)[C@H]2CC[C@@]3(C)[C@@H](CC[C@@]34CCC(=O)O4)[C@H]12 [spironolactone],,,,,,,,,,,,,,,,,accumulation of hydroxyproline (indicator of tissue fibrosis) [8]: improves
"COC(=O)[C@@H]1CC2=CC(=O)CC[C@]2(C)[C@@]23O[C@@H]2C[C@@]2(C)[C@@H](CC[C@@]24CCC(=O)O4)[C@H]13 [eplerenone, reference compound]",significantly improved,significantly improved,significantly improved,significantly improved,significantly improved,significantly improved,significantly reduced,significantly reduced,significantly reduced,tendency to increase,significantly reduced,could not reduce,could not reduce,could not reduce,significantly reduced,could not reduce,metabolizing enzyme [9]: mainly metabolized by CYP3A4
